Patent US20240334933A1, “USE OF COMPOSITIONS WITH ETHOFUMESATE AND BIXLOZONE IN WHEAT CROPS” (BAYER AKTIENGESELLSCHAFT, priority 2021, published 2024)
Where two headings read alike, the source gives them in different places.

Tests used:
barley and wheat = details: greenhouse studies; cited from earlier work
[1] = test system: annual bluegrass (Poa annua L.); details: pre-emergence or early post-emergence at 0.8 to 4.5 kg/ha; cited from earlier work
corn = details: applied 3 weeks before planting at rates of 2.2 to 9.0 kg/ha; cited from earlier work
[2] = test system: volunteer wheat (Triticum aestivum L.); details: cited from earlier work
wheat crop plants = test: Own experiments: safening effect of mefenpyr-diethyl used with flufenacet; type: in vivo; details: used with flufenacet (WSSA group 15 herbicide)

SMILES | susceptibility of barley and wheat to soil residues relative to corn (barley and wheat) | control of annual bluegrass [1] | corn yields (corn) | control of volunteer wheat ([2]; 1.7 kg/ha or more, wheat in the one- to three-leaf stage) | control of volunteer wheat ([2]; applied pre-emergence soon after planting or at the end of November to wheat in the four-leaf to four-tiller stage) | safening effect in wheat crop plants (wheat crop plants)
CCOC1Oc2ccc(OS(C)(=O)=O)cc2C1(C)C (stereo not drawn) [Ethofumesate, 2-ethoxy-2,3-dihydro-3,3-dimethylbenzofuran-5-yl methanesulfonate] | about 10 times | eliminated annual bluegrass | reduced in proportion to the rate | eliminated the wheat | Wheat was not eliminated | 
CCOC(=O)C1=NN(c2ccc(Cl)cc2Cl)C(C)(C(=O)OCC)C1 (stereo not drawn) [Mefenpyr-diethyl, ethyl 1-(2,4-dichlorophenyl)-5-(ethoxycarbonyl)-5-methyl-2-pyrazoline-3-carboxylate] |  |  |  |  |  | does not have a safening effect
